Results on 25 molecules are retold here after patent US20050143296A1, “Extraction and utilization of cell growth-promoting peptides from silk protein” (priority 2003, published 2005).

Series [1] in a line: Dissolution of synthetic peptides in PBS for coating. The following applies: about 1 mg peptide in 200 μl of PBS. In kind it is physicochemical. The method, then:
About 1 mg each of the synthetic peptides was dissolved in 200 μl of PBS. The dissolved peptide solutions were diluted with 70% ethanol to adjust to 0.025% and 0.0025% concentrations, and 1 ml each of these solutions were put in dishes and dried.
70% ethanol, put in a dish and dried.

Series [2] concerns human skin fibroblasts. Put plainly: Growth of human skin fibroblasts in dishes coated with silk fractions or peptides (low serum medium with LSGS, Alamer Blue viable cell number). The following applies: for Growth rate (%): control = 100; for cell growth promotion (in words): human skin fibroblasts in coated dishes, compared to control without peptide. In kind it is cell-based. The method, then: Only 1 ml of 70% ethanol was added to dishes for control.
The cells used were human skin fibroblasts (originating from adult normal skin) purchased (frozen) from Sanko Junyaku Co., Ltd.
The medium was added at 2 ml per dish, and 80,000 cells were inoculated and cultured for 3 days.
The medium at 2 ml per dish and Alamer Blue (Iwaki Glass Co.) at 0.1 ml per dish were added and cultured for 2 hours at 37 degrees C., and then the reduced amount of Alamer Blue dye calculated from the absorbances at 570 nm and 600 nm was correlated with viable cell number.
Control dishes contained only 70% ethanol at 1 ml, followed by air-drying.
About 1 mg each of the synthetic peptides was dissolved in 200 μl of PBS.
The cells used were human skin fibroblasts (originating from adult normal skin) purchased (frozen) from Sanko Junyaku Co. Ltd.
The culture medium used was the low serum culture medium for human skin fibroblast growth purchased from Kurabo Industries Ltd.
The medium was added at 2 ml per dish, and ca. 80,000 cells were inoculated and cultured for 3 days.
Then, 0.1 ml of Alamer Blue (Iwaki Glass Co.) was added and cultured for 2 hours at 37 degrees C., and the reduced amount of Alamer Blue calculated from the absorbances at 570 nm and 600 nm was correlated with viable cell number.

Series [3] deals with human skin fibroblasts. Put plainly: Proliferation of human skin fibroblasts after 3-day culture in peptide-coated dishes (Medium 106S without LSGS). In kind it is cell-based. The following applies: Table 9, peptide 0.025 μg/cm^2, no LSGS, no peptide = 100. Here is the method:
(§1) This method partly differs from the method in (3) Cell culture of Example 1.
(§2) In the present cell culture, the cells used were human skin fibroblasts (originating from adult normal skin) purchased (frozen) from Sanko Junyaku Co. Ltd.
(§3) The culture medium used was the low serum culture medium for human skin fibroblast growth purchased from Kurabo Industries Ltd. (Medium 106S 500 ml).
(§4) The medium 106S is a basal medium for skin fibroblasts.
(§5) LSGS (low serum growth supplement) was not used here.
In the measurement of proliferation, the viable cell number at 3 days after inoculation of cells into the medium was measured.
(§6) Besides the cell culture method, coating of peptides on cell culture dishes, measurement of viable cell number with Alamer Blue dye, and the like were carried out as described in Example 1.
(§7) In this case, the concentration of each peptide coated on dishes was 0.025 μg/cm^2.
The growth rate (%) in the case where no peptide was coated was set at 100.
It should be noted that the viable cell number in the control in 3-day culturing increased about 150% during the culture and the control value (100%) was based on the viable cell number after 3-day culture.
Accordingly, when there was no increase or decrease in the cell number after 3-day culturing, the growth rate would become about 70%.

The subject of series [4] is human skin fibroblasts. Put plainly: Adhesion of human skin fibroblasts after 5 hours in peptide-coated dishes (Medium 106S without LSGS). In kind it is cell-based. The following applies: Table 8; 5 hour-culture; peptide 0.025 μg/cm^2; no LSGS; no peptide = 100. The method, then: as §1, §2, §3, §4, §5
In the measurement of adhesion, the cells floating in the medium at 5 hours after inoculation of cells into the medium were removed, and the viable cell number adhering to the bottom of a dish was measured.
as §6, §7
The adhesion rate (%) in the case where no peptide was coated was set at 100.

Series [5] deals with human skin fibroblasts. The series is described as follows: Growth of human skin fibroblasts in dishes coated with silk fractions or peptides (low serum medium with LSGS, Alamer Blue viable cell number). In kind it is cell-based. The following applies: for Growth rate (%): Table 3, gel filtration peaks of A-6, cultured for 2 days, control = 100; for growth rate relative to the growth of the control: after 2-day culture (Table 3). In general terms: Size exclusion chromatography separates by hydrodynamic size, large species first.

[6] abbreviates: Table 7, peptide concentration 0.025 μg/cm^2, 3-day culture.
Where [7] appears, read: Table 5, synthetic peptide 0.0025%, 3-day culture.
Where [8] appears, read: Table 5, synthetic peptide 0.025%, 3-day culture.
Setting [9] is: Table 6, values of Tables 4 and 5 at higher peptide concentration (0.025%).

“Also recorded” adds a separate entry of the source. Where a SMILES comes first, the peptide text is derived from it. Where no end group is shown, it is not given here.

Take `C[C@H](N)C(=O)N[C@@H](C)C(=O)N[C@@H](C)C(=O)N[C@@H](C)C(=O)N[C@@H](C)C(=O)N[C@@H](C)C(=O)N[C@@H](C)C(=O)N[C@@H](C)C(=O)N[C@@H](C)C(=O)N[C@@H](C)C(=O)O` [AfH0, Ala Ala Ala Ala Ala Ala Ala Ala Ala Ala]: the “solubility (in words)” value in series [1] is on record as “hard to dissolve”.
For the molecule `N[C@@H](CCC(=O)O)C(=O)O` [Glu, glutamic acid, reference compound], the “Cell growth rate (%)” value in the series on human skin fibroblasts [2] (setting [6]) is listed as 69%.
Take `C[C@H](NC(=O)CN)C(=O)NCC(=O)N[C@@H](C)C(=O)NCC(=O)N[C@@H](CO)C(=O)NCC(=O)N[C@@H](C)C(=O)NCC(=O)N[C@@H](C)C(=O)NCC(=O)N[C@@H](CO)C(=O)NCC(=O)N[C@@H](C)C(=O)NCC(=O)N[C@@H](C)C(=O)NCC(=O)N[C@@H](Cc1ccc(O)cc1)C(=O)NCC(=O)N[C@@H](C)C(=O)NCC(=O)N[C@@H](Cc1ccc(O)cc1)C(=O)O` [SfHC-1] (H-GAGAGSGAGAGSGAGAGYGAGY-OH; N-terminus and C-terminus assumed): the “solubility (in words)” value in series [1] was “difficult to dissolve”.
On to `C[C@H](NC(=O)CN)C(=O)NCC(=O)N[C@@H](C)C(=O)NCC(=O)N[C@@H](CO)C(=O)NCC(=O)N[C@@H](C)C(=O)N[C@@H](C)C(=O)N[C@@H](CO)C(=O)NCC(=O)N[C@@H](C)C(=O)NCC(=O)N[C@@H](C)C(=O)NCC(=O)N[C@@H](C)C(=O)NCC(=O)N[C@@H](C)C(=O)NCC(=O)N[C@@H](C)C(=O)NCC(=O)N[C@H](C(=O)O)[C@@H](C)O` [SfHC-2] (H-GAGAGSGAASGAGAGAGAGAGT-OH; N-terminus and C-terminus assumed), for which the “solubility (in words)” value in series [1] is recorded as “difficult to dissolve”.
Still for that read-out and setting: in the case of `CC(C)[C@H](NC(=O)[C@H](CO)NC(=O)[C@H](CO)NC(=O)[C@H](C)NC(=O)[C@H](C)N)C(=O)N[C@@H](CO)C(=O)N[C@@H](CO)C(=O)N[C@@H](C)C(=O)N[C@@H](CO)C(=O)N[C@@H](CO)C(=O)N[C@@H](CCCNC(=N)N)C(=O)N[C@@H](CO)C(=O)N[C@@H](Cc1ccc(O)cc1)C(=O)N[C@@H](CC(=O)O)C(=O)N[C@@H](Cc1ccc(O)cc1)C(=O)N[C@@H](CO)C(=O)N[C@@H](CCCNC(=N)N)C(=O)N[C@@H](CCCNC(=N)N)C(=O)N[C@@H](CC(N)=O)C(=O)N[C@H](C(=O)N[C@@H](CCCNC(=N)N)C(=O)N[C@@H](CCCCN)C(=O)N[C@@H](CC(N)=O)C(=O)O)C(C)C` [SfHE] (H-AASSVSSASSRSYDYSRRNVRKN-OH; N-terminus and C-terminus assumed) it was “difficult to dissolve”.
In the case of DDGFVLDGGYDSE [AfH7], the results for the “Growth rate (%)” value in the series with human skin fibroblasts [3], in the series on human skin fibroblasts [2] (setting [7]) and with human skin fibroblasts [2] (setting [8]) were 89%, 155 ± 5.3% and 284 ± 25.1%, respectively. Also, the “Adhesion rate (%)” value with human skin fibroblasts [4] is reported as 153%. Moreover, the “Cell growth rate (%)” value in the series on human skin fibroblasts [2] (setting [9]) is reported as 284%. Moreover, the “cell growth promotion (in words)” value with human skin fibroblasts [2] is recorded as “excellent cell growth promotion”.
Turning to DEDEDE, in the series with human skin fibroblasts [4], the “Adhesion rate (%)” value is reported as 229%. The “Cell growth rate (%)” value in the series on human skin fibroblasts [2] (setting [6]) turned out to be 322%.
DEYVDN [AfH5]: the “Growth rate (%)” value in the series with human skin fibroblasts [3] amounted to 108%; in the series with human skin fibroblasts [2] (setting [7]), 192 ± 11.3%; with human skin fibroblasts [2] (setting [8]), 344 ± 7.7%. In addition, the “Adhesion rate (%)” value with human skin fibroblasts [4] was 234%. Also, in the series with human skin fibroblasts [2] (setting [9]), the “Cell growth rate (%)” value stood at 344%. In addition, the “cell growth promotion (in words)” value in the series on human skin fibroblasts [2] is recorded as “excellent cell growth promotion”.
For EEEEEE, in the series on human skin fibroblasts [2] (setting [6]), the “Cell growth rate (%)” value is recorded as 346%.
As to EEYEEY, in the series on human skin fibroblasts [2] (setting [6]), the “Cell growth rate (%)” value is recorded as 212%.
The same measure, in the same setting: with EYEYEY the figure was 207%.
Turning to GSGAGGRGDGGYGSGSS [AfH3], the “Growth rate (%)” value in the series on human skin fibroblasts [3] was determined as 69%; in the series on human skin fibroblasts [2] (setting [7]), 111 ± 9.0%; in the series on human skin fibroblasts [2] (setting [8]), 194 ± 24.5%. The “Adhesion rate (%)” value in the series with human skin fibroblasts [4] stood at 174%. Further, the “Cell growth rate (%)” value with human skin fibroblasts [2] (setting [9]) is given as 194%.
For GSSGFGPYVAHGGYSGYEYAWSSESDFGT [SfHA], the “Growth rate (%)” value in the series with human skin fibroblasts [3] was 159%; in the series on human skin fibroblasts [2] (Table 4, synthetic peptide 0.0025%, 3-day culture), 321 ± 6.2%; with human skin fibroblasts [2] (Table 4, synthetic peptide 0.025%, 3-day culture), 316 ± 5.7%. Further, the “Adhesion rate (%)” value in the series with human skin fibroblasts [4] is 205%. Further, the “Cell growth rate (%)” value with human skin fibroblasts [2] (setting [9]) was 316%.
As to Glu Glu, in the series with human skin fibroblasts [2] (setting [6]), the “Cell growth rate (%)” value is listed as 159%.
Still for that read-out and setting: with “Glu Glu Glu Glu (EEEE; printed: Glu Glu Glu Glu)” the figure was 231%.
Still for that read-out and setting: with Glu Glu Glu Glu Glu Glu Glu Glu Glu Glu the figure was 254%.
Regarding NINDFDED [A-6-6], in the series with human skin fibroblasts [5], the “Growth rate (%)” value was 159 ± 6.6% and the “growth rate relative to the growth of the control” value turned out to be 1.5 fold. Further, the “cell growth promotion (in words)” value in the series with human skin fibroblasts [2] is on record as “showed cell growth promotion”.
In the case of RRAGHDRAAGS [AfH4], the “Growth rate (%)” value in the series with human skin fibroblasts [3] came to 96%; with human skin fibroblasts [2] (setting [7]) it was 113 ± 4.8%; with human skin fibroblasts [2] (setting [8]), 133 ± 8.7%. In addition, in the series on human skin fibroblasts [4], the “Adhesion rate (%)” value came to 151%. In the series with human skin fibroblasts [2] (setting [9]), the “Cell growth rate (%)” value is recorded as 133%.
For SGAGGSGGYGGYGSDS [AfH2], the “Growth rate (%)” value in the series on human skin fibroblasts [3] was 71%; in the series on human skin fibroblasts [2] (setting [7]) it was 118 ± 14.7%; in the series on human skin fibroblasts [2] (setting [8]), 196 ± 9.4%. The “Adhesion rate (%)” value with human skin fibroblasts [4] was 149%. In addition, in the series on human skin fibroblasts [2] (setting [9]), the “Cell growth rate (%)” value was 196%.
Take Tyr Tyr: the “Cell growth rate (%)” value with human skin fibroblasts [2] (setting [6]) came to 113%.
Still for that read-out and setting: in the case of “Tyr Tyr Tyr Tyr (YYYY; printed: Tyr Tyr Tyr Tyr)” it was 156%.
VETIVLEEDPYGHEDIYEED [AfH6]: the “Growth rate (%)” value in the series on human skin fibroblasts [3] was 77%; in the series on human skin fibroblasts [2] (setting [7]) it was 152 ± 9.0%; with human skin fibroblasts [2] (setting [8]), 264 ± 9.0%. For the same molecule, the “Adhesion rate (%)” value with human skin fibroblasts [4] is recorded as 135%. The “Cell growth rate (%)” value in the series with human skin fibroblasts [2] (setting [9]) stood at 264%. Further, in the series with human skin fibroblasts [2], the “cell growth promotion (in words)” value is “higher cell growth promotion; also recorded: excellent cell growth promotion”.
As to VITTDSDGNE [A-6-2], in the series with human skin fibroblasts [5], the “Growth rate (%)” value was found to be 153 ± 2.7% and the “growth rate relative to the growth of the control” value stood at 1.5 fold. Further, in the series with human skin fibroblasts [2], the “cell growth promotion (in words)” value was “showed cell growth promotion”.
With YGWGDGGYGSDS [AfH1], the “Growth rate (%)” value is 94% with human skin fibroblasts [3], 179 ± 13.5% in the series with human skin fibroblasts [2] (setting [7]) and 396 ± 4.0% in the series on human skin fibroblasts [2] (setting [8]). Besides, in the series with human skin fibroblasts [4], the “Adhesion rate (%)” value is 169%. In the series on human skin fibroblasts [2] (setting [9]), the “Cell growth rate (%)” value is given as 396%. Further, in the series on human skin fibroblasts [2], the “cell growth promotion (in words)” value is “excellent cell growth promotion”.
On to YYYYYY, for which, in the series with human skin fibroblasts [2] (setting [6]), the “Cell growth rate (%)” value is reported as 239%.
